“And” between values parts separate entries of the source, which are not always exact repeats. Identical values can stand only once.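 A five-concentration, 48-hour dose response in 96-well plates underlies each endpoint, interpolated linearly between surrounding concentrations. Abbreviation: GI50, concentration required for 50% inhibition of growth. TGI marks complete inhibition of growth.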

Some test systems named below: HCC-2998 colon; SF-295 CNS; NCI-H23 lung; SNB-19 CNS; SK-MEL-2 melanoma; LOX IMVI melanoma; U251 CNS; CCRF-CEM leukemia; SK-MEL-5 melanoma; NCI-H460 lung.
Common to all, as to experiment: DTP human tumour cell line panel, 48 h

With `O=C1OC(c2ccc([N+](=O)[O-])cc2)=N/C1=C\c1ccc(Cl)cc1`, the concentration for total growth inhibition (TGI) in the test on HCC-2998 colon, with SF-295 CNS, in the test on NCI-H23 lung, in the test with SNB-19 CNS, with SK-MEL-2 melanoma and with LOX IMVI melanoma was more than 100 µM throughout. Also, the total growth inhibition concentration (TGI) with U251 CNS, in the test on CCRF-CEM leukemia, with SK-MEL-5 melanoma and with NCI-H460 lung was more than 100 µM throughout.
For the compound `CC(=O)CC[N+](C)(C)C`, the TGI with HCC-2998 colon was 68.1 µM; in the test on SF-295 CNS, more than 100 µM; with NCI-H23 lung, 59.6 µM; with SNB-19 CNS, more than 36.9 µM; in the test with SK-MEL-2 melanoma, 64.4 µM; in the test with LOX IMVI melanoma, 37.8 µM. Also, the concentration for total growth inhibition (TGI) with U251 CNS was 59.9 µM; in the test on CCRF-CEM leukemia it was 13.7 µM; in the test with SK-MEL-5 melanoma it was 59.6 µM; with NCI-H460 lung, more than 90 µM.
Turning to `COc1ccc2[nH]c3c(C)c4c(c(C)c3c2c1)CN(C)C=C4`, the TGI in the test on HCC-2998 colon amounted to 13.9 µM; in the test on SF-295 CNS, 2.7 µM; with NCI-H23 lung, 3.28 µM; in the test on SNB-19 CNS, 3.66 µM; in the test with SK-MEL-2 melanoma, 9.8 µM; in the test on LOX IMVI melanoma, 28.1 µM. For the same compound, the concentration for total growth inhibition (TGI) in the test on U251 CNS stood at 1.45 µM; in the test on CCRF-CEM leukemia, 34.7 µM; in the test on SK-MEL-5 melanoma it was 6.75 µM; in the test with NCI-H460 lung, 11.2 µM.
For the compound `C=CCCC(O)c1cc(C)c(O)c(C)c1` (centres undefined), the total growth inhibition concentration (TGI) with HCC-2998 colon, with SF-295 CNS, in the test with NCI-H23 lung, in the test with SNB-19 CNS, in the test with SK-MEL-2 melanoma and in the test on LOX IMVI melanoma was more than 100 µM in each case. The TGI in the test with U251 CNS, in the test with CCRF-CEM leukemia, in the test on SK-MEL-5 melanoma and in the test with NCI-H460 lung was more than 100 µM in each case.
In the case of `COc1ccccc1/C=C1\C(=O)N(C(=O)Cc2ccccc2)N=C1C`, the TGI with HCC-2998 colon, in the test on SF-295 CNS, with NCI-H23 lung, in the test with SNB-19 CNS, with SK-MEL-2 melanoma and in the test with LOX IMVI melanoma was more than 100 µM each time. Further, the TGI in the test on U251 CNS, in the test with CCRF-CEM leukemia, with SK-MEL-5 melanoma and in the test with NCI-H460 lung was more than 100 µM each time.
Regarding `CCN1C(=O)N(CC)C2C1NN=c1s/c(=C3\C(=O)Nc4ccccc43)c(=O)n12` (centres undefined), the GI50 in the test with HCC-2998 colon was 1.47 µM; in the test with SF-295 CNS it was 0.463 µM; in the test with NCI-H23 lung it was 0.752 µM; with SNB-19 CNS it was 0.633 µM; in the test with SK-MEL-2 melanoma, 1.34 µM; with LOX IMVI melanoma, 0.625 µM. Further, the GI50 in the test on U251 CNS is 0.556 µM; in the test with CCRF-CEM leukemia, 0.385 µM; with SK-MEL-5 melanoma, 0.426 µM; with NCI-H460 lung, 0.397 µM. The TGI in the test on HCC-2998 colon came out at 31.7 µM; with SF-295 CNS it was 12.4 µM; with NCI-H23 lung, 24 µM; in the test on SNB-19 CNS, 32.3 µM; in the test with SK-MEL-2 melanoma, 30 µM; in the test with LOX IMVI melanoma, 29.2 µM. Also, the total growth inhibition concentration (TGI) with U251 CNS is 21 µM; with CCRF-CEM leukemia, 27.1 µM; with SK-MEL-5 melanoma it was more than 100 µM; with NCI-H460 lung, more than 100 µM.
Consider `Cc1[nH]n(-c2nc(-c3ccccc3)cc(=O)[nH]2)c(=O)c1CCO`, for which the total growth inhibition concentration (TGI) in the test on HCC-2998 colon, in the test with SF-295 CNS, in the test with NCI-H23 lung, in the test with SNB-19 CNS, with SK-MEL-2 melanoma and in the test on LOX IMVI melanoma was more than 100 µM throughout. Further, the concentration for total growth inhibition (TGI) in the test with U251 CNS, with CCRF-CEM leukemia, in the test with SK-MEL-5 melanoma and in the test on NCI-H460 lung was more than 100 µM in each case.
On to `CCc1nc(N)nc(N)c1C#CC(C)c1ccc(-c2ccncc2)cc1Cl` (centres undefined), for which the GI50 with HCC-2998 colon is 0.0869 µM and 0.134 µM; in the test with SF-295 CNS, 0.00508 µM and 0.0141 µM; with NCI-H23 lung, 0.00854 µM and 0.0332 µM; in the test on SNB-19 CNS, 0.0394 µM and 0.0796 µM; in the test with SK-MEL-2 melanoma, 0.579 µM and 1.75 µM; with LOX IMVI melanoma, less than 0.005 µM. Also, the GI50 with U251 CNS was 0.0108 µM and 0.028 µM; in the test with CCRF-CEM leukemia, 0.0143 µM and 0.0367 µM; in the test on SK-MEL-5 melanoma, 0.00753 µM and 0.0461 µM; in the test on NCI-H460 lung it was less than 0.005 µM. The TGI with HCC-2998 colon was 4.07 µM and 13.1 µM; in the test with SF-295 CNS, 0.809 µM and 4.24 µM; in the test on NCI-H23 lung it was 5.01 µM and 5.71 µM; in the test on SNB-19 CNS, 6.69 µM and 15.2 µM; in the test with SK-MEL-2 melanoma, 3.33 µM and 17.6 µM; in the test on LOX IMVI melanoma, 1.37 µM and 11.3 µM. Further, the TGI is 5.1 µM and 11.6 µM in the test with U251 CNS; 5.48 µM and 14.5 µM with CCRF-CEM leukemia; 0.781 µM and 1.98 µM in the test on SK-MEL-5 melanoma.

The values are drawn from PubChem BioAssay (NCI).
